Test results from patent US20100267952A1, “USE OF NOVEL COMPOUND HAVING AFFINITY FOR AMYLOID, AND PROCESS FOR PRODUCTION OF THE SAME” (NIHON MEDI-PHYSICS CO., LTD., priority 2007, published 2010).

Experiments:
[1] = target: T1, amyloid (aggregated Aβ1-42) injected into amygdaloid nucleus (Homo sapiens, UniProt P05067); assay: Confirmation of imaging of amyloid in brain (autoradiogram of brain slice, Aβ1-42 injected rat); assay type: in vivo, male Wistar rat; conditions: tail vein, 11-15 MBq equivalent, brain removed 60 minutes after injection
T1 construct: Aβ1-42 (Wako) was dissolved in phosphate buffer (pH 7.4); purchased Wako
Protocol: (1) Aβ1-42 (Wako) was dissolved in phosphate buffer (pH 7.4) and shaken at 37° C. for 72 hours, to obtain a 1 mg/mL suspension of aggregated Aβ (hereinafter referred to as amyloid suspension in this Example).
(2) 2.5 μL (corresponding to 25 μg) of the amyloid suspension was injected into an amygdaloid nucleus on one side of a male Wistar rat (7-week old). As a control, 2.5 μL of a phosphate buffered physiological saline solution (pH 7.4) was injected into an amygdaloid nucleus on the other side of the rat. The rats were examined 1 day after the injection of the amyloid suspension and the phosphate buffered physiological saline solution (pH 7.4).
This solution was injected under thiopental anesthesia into the rat through the tail vein (dosage: 0.5 mL, dosed radioactivity: 11-15 MBq equivalent).
(4) Brain was removed 60 minutes after the injection to prepare a brain slice of 10 μm in thickness with a microtome (type: CM3050S, manufactured by LEICA). The brain slice was exposed to an imaging plate for 20 hours, and then image analysis was carried out by use of a Bio-imaging Analyzer (type: BAS-2500; manufactured by FUJIFILM Corporation).

[2] = Radioactive distribution ratio in each organ; assay type: in vivo, SD rat
Protocol: 0.2 mL each of the prepared sample solution was administered under non-thiopental anesthesia into the tail vein of the above rat. The rats were sacrificed by bleeding from abdominal artery, and each organ shown in Table 3 was removed 5, 30, 60 and 180 minutes after the administration. […] Also, radioactivity of the whole body of the rat after removal of the organs (hereinafter referred to as rest of the whole body) was measured. Using these measurement results, radioactive distribution per unit weight of each organ (% ID/g) at the respective time points was calculated in accordance with the following formula (3).
Three animals were used for the experiment at the respective time points.
R^T: Radioactivity of target organ (cpm) R^S: Sum of radioactivity of all the organs (cpm) R^R: Radioactivity of the rest of the whole body (cpm) M^T: Mass of target organ (g)

[3] = Transferability into brain and clearance (2); assay type: in vivo, male Wistar rats; conditions: rats, intravenous injection, Table 1-10
Protocol: 0.05 mL each of these solutions was injected under thiopental anesthesia into the tail vein of respective Wistar rats (7-week old). The rats were sacrificed by bleeding from abdominal artery, and brains were removed and subjected to measurement of mass of brains and further subjected to measurement of radioactivity (hereinafter referred to as A in this Example) with a single channel analyzer (detector type: SP-20 manufactured by OHYO KOKEN KOGYO Co., Ltd.) 2, 5, 30 and 60 minutes after the injection. Also, radioactivity (hereinafter referred to as B in this Example) of the rest of the whole body was measured in the same manner as above. Using these measurement results, radioactive distribution per unit weight of brain (% ID/g) at the respective time points were calculated in accordance with the following formula (1-7).
Three animals were used for experiment at the respective time points.

[4] = SD rat, tail vein, 5 min. after administration
[5] = SD rat, tail vein, 30 min. after administration
[6] = SD rat, tail vein, 60 min. after administration
[7] = SD rat, tail vein, 180 min. after administration

T1 sequence (P05067 672-713): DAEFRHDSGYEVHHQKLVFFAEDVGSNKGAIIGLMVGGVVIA

FCCOc1ccc(-c2cn3cc([123I])ccc3n2)cc1 [Compound I-9, 2-[4′-(2″-fluoroethoxy)phenyl]-6-[^123I]iodoimidazo[1,2-a]pyridine]
accumulation of radioactivity in amygdaloid nucleus on the amyloid-injected side (autoradiogram) [1]: marked accumulation of radioactivity | excretion / clearance to the outside of the body ([2]; SD rat, tail vein): biliary-excreted rapidly after the administration | Radioactive distribution per unit weight, Adrenal gland, Average [2, 4]: 3.914 % ID/g | Radioactive distribution per unit weight, Adrenal gland, Average [2, 5]: 0.457 % ID/g | Radioactive distribution per unit weight, Adrenal gland, Average [2, 6]: 0.260 % ID/g | Radioactive distribution per unit weight, Adrenal gland, Average [2, 7]: 0.017 % ID/g | Radioactive distribution per unit weight, Blood, Average [2, 4]: 0.370 % ID/g | Radioactive distribution per unit weight, Blood, Average [2, 5]: 0.142 % ID/g | Radioactive distribution per unit weight, Blood, Average [2, 6]: 0.108 % ID/g | Radioactive distribution per unit weight, Blood, Average [2, 7]: 0.074 % ID/g | Radioactive distribution per unit weight, Bone, Average [2, 4]: 0.187 % ID/g | Radioactive distribution per unit weight, Bone, Average [2, 5]: 0.067 % ID/g | Radioactive distribution per unit weight, Bone, Average [2, 6]: 0.045 % ID/g | Radioactive distribution per unit weight, Bone, Average [2, 7]: 0.032 % ID/g | Radioactive distribution per unit weight, Brain, Average [2, 4]: 0.701 % ID/g | Radioactive distribution per unit weight, Brain, Average [2, 5]: 0.067 % ID/g | Radioactive distribution per unit weight, Brain, Average [2, 6]: 0.026 % ID/g | Radioactive distribution per unit weight, Brain, Average [2, 7]: 0.007 % ID/g | Radioactive distribution per unit weight, Heart, Average [2, 4]: 0.551 % ID/g | Radioactive distribution per unit weight, Heart, Average [2, 5]: 0.111 % ID/g | Radioactive distribution per unit weight, Heart, Average [2, 6]: 0.059 % ID/g | Radioactive distribution per unit weight, Heart, Average [2, 7]: 0.030 % ID/g | Radioactive distribution per unit weight, Kidney, Average [2, 4]: 1.114 % ID/g | Radioactive distribution per unit weight, Kidney, Average [2, 5]: 0.560 % ID/g | Radioactive distribution per unit weight, Kidney, Average [2, 6]: 0.302 % ID/g | Radioactive distribution per unit weight, Kidney, Average [2, 7]: 0.108 % ID/g | Radioactive distribution per unit weight, Large intestine, Average [2, 4]: 0.106 % ID/g | Radioactive distribution per unit weight, Large intestine, Average [2, 5]: 0.070 % ID/g | Radioactive distribution per unit weight, Large intestine, Average [2, 6]: 0.074 % ID/g | Radioactive distribution per unit weight, Large intestine, Average [2, 7]: 5.241 % ID/g | Radioactive distribution per unit weight, Liver, Average [2, 4]: 2.399 % ID/g | Radioactive distribution per unit weight, Liver, Average [2, 5]: 0.337 % ID/g | Radioactive distribution per unit weight, Liver, Average [2, 6]: 0.178 % ID/g | Radioactive distribution per unit weight, Liver, Average [2, 7]: 0.067 % ID/g | Radioactive distribution per unit weight, Lung, Average [2, 4]: 0.647 % ID/g | Radioactive distribution per unit weight, Lung, Average [2, 5]: 0.192 % ID/g | Radioactive distribution per unit weight, Lung, Average [2, 6]: 0.130 % ID/g | Radioactive distribution per unit weight, Lung, Average [2, 7]: 0.074 % ID/g | Radioactive distribution per unit weight, Marrow, Average [2, 4]: 0.815 % ID/g | Radioactive distribution per unit weight, Marrow, Average [2, 5]: 0.075 % ID/g | Radioactive distribution per unit weight, Marrow, Average [2, 6]: 0.000 % ID/g | Radioactive distribution per unit weight, Marrow, Average [2, 7]: 0.000 % ID/g | Radioactive distribution per unit weight, Muscle, Average [2, 4]: 0.239 % ID/g | Radioactive distribution per unit weight, Muscle, Average [2, 5]: 0.052 % ID/g | Radioactive distribution per unit weight, Muscle, Average [2, 6]: 0.031 % ID/g | Radioactive distribution per unit weight, Muscle, Average [2, 7]: 0.016 % ID/g | Radioactive distribution per unit weight, Pancreas, Average [2, 4]: 0.650 % ID/g | Radioactive distribution per unit weight, Pancreas, Average [2, 5]: 0.236 % ID/g | Radioactive distribution per unit weight, Pancreas, Average [2, 6]: 0.115 % ID/g | Radioactive distribution per unit weight, Pancreas, Average [2, 7]: 0.073 % ID/g | Radioactive distribution per unit weight, Small intestine, Average [2, 4]: 1.259 % ID/g | Radioactive distribution per unit weight, Small intestine, Average [2, 5]: 6.598 % ID/g | Radioactive distribution per unit weight, Small intestine, Average [2, 6]: 8.235 % ID/g | Radioactive distribution per unit weight, Small intestine, Average [2, 7]: 2.657 % ID/g | Radioactive distribution per unit weight, Spleen, Average [2, 4]: 0.442 % ID/g | Radioactive distribution per unit weight, Spleen, Average [2, 5]: 0.092 % ID/g | Radioactive distribution per unit weight, Spleen, Average [2, 6]: 0.069 % ID/g | Radioactive distribution per unit weight, Spleen, Average [2, 7]: 0.037 % ID/g | Radioactive distribution per unit weight, Stomach, Average [2, 4]: 0.287 % ID/g | Radioactive distribution per unit weight, Stomach, Average [2, 5]: 0.619 % ID/g | Radioactive distribution per unit weight, Stomach, Average [2, 6]: 0.672 % ID/g | Radioactive distribution per unit weight, Stomach, Average [2, 7]: 0.812 % ID/g | ratio (% ID/g at 5 minutes after the administration)/(% ID/g at 180 minutes after the administration) ([2]; bone): 6 | ratio (% ID/g at 5 minutes after the administration)/(% ID/g at 180 minutes after the administration) ([2]; brain): 94 | ratio (% ID/g at 5 minutes after the administration)/(% ID/g at 180 minutes after the administration) ([2]; heart): 18 | ratio (% ID/g at 5 minutes after the administration)/(% ID/g at 180 minutes after the administration) ([2]; lung): 9 | ratio (% ID/g at 5 minutes after the administration)/(% ID/g at 180 minutes after the administration) ([2]; pancreas): 9 | Radioactive distribution per unit weight in brain, After 2 min. ([3]; 2 min.): 0.72 % ID/g | Radioactive distribution per unit weight in brain, After 5 min. ([3]; 5 min.): 0.49 % ID/g | Radioactive distribution per unit weight in brain, After 30 min. ([3]; 30 min.): 0.07 % ID/g | Radioactive distribution per unit weight in brain, After 60 min. ([3]; 60 min.): 0.02 % ID/g
